Among the data in article PMC10457016 (Journal of fluorine chemistry, 2023) are IC50 and Solubility values, retold here.

≈ marks a conversion by molar mass, not a printed value. Where two headings read alike, the source gives them in different places.

Series [1] deals with T1, human sEH (Homo sapiens, UniProt P34913).
T1 sequence (P34913 1-555): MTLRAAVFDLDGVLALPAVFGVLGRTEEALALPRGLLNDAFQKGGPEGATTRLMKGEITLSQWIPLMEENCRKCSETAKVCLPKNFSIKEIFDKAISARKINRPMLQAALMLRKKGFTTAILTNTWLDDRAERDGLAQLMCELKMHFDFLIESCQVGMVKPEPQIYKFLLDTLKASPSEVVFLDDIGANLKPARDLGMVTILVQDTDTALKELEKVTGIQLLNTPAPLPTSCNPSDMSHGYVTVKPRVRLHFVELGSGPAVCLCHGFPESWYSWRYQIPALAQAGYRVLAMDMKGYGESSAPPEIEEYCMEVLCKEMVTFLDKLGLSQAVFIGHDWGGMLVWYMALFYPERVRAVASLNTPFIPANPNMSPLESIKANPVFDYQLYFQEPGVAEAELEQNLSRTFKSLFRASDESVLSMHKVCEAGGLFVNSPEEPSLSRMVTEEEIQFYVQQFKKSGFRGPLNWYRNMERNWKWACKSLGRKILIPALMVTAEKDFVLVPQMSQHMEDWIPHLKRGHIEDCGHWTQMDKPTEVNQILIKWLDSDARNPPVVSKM
Description: Determination of inhibitory potency. The class given is biochemical.

Series [2] in a line: Solubility in sodium phosphate buffer. Type of series: physicochemical.
Setting [3] is: sodium phosphate buffer, pH 7.4, aqueous buffer.
Where [4] appears, read: kinetic fluorescent assay, substrate 5 μM, human sEH 1 nM, means of three separate experiments.
[5] abbreviates: sodium phosphate buffer (pH 7.4, 0.1 M) containing 1% of DMSO.

For `O=C(NCc1ccn(CC(F)F)n1)NCC12CC3CC(CC(C3)C1)C2` [4b, 1-[(Adamantan-1-yl)methyl]-3-{[1-(2,2-difluoroethyl)-1H-pyrazol-3-yl]methyl}urea], the IC50 (usually the concentration that inhibits the measured activity by half) in series [1] is 27.5 nM. In addition, the Solubility – broadly, the concentration that dissolves in the medium under given conditions – in series [2] (setting [3]) was 270 to 280 µM (≈ 95.2 to 98.7 µg/mL).
With `O=C(NCc1ccn(CCF)n1)NCC12CC3CC(CC(C3)C1)C2` [4a, 1-[(Adamantan-1-yl)methyl]-3-{[1-(2-fluoroethyl)-1H-pyrazol-3-yl]methyl}urea], the IC50 in series [1] stood at 13.8 nM. Moreover, the Solubility in series [2] (setting [3]) fell in the range of 650 to 660 µM (≈ 217 to 221 µg/mL).
In series [1] (setting [4]), `O=C(NCc1ccn(CCF)n1)NC12CC3CC(CC(C3)C1)C2` [3a, 1-Adamantyl-3-{[1-(2-fluoroethyl)-1H-pyrazol-3-yl]methyl}urea] registered an IC50 of 10.2 nM. This molecule yielded a Solubility in series [2] (setting [5]) of 440 to 450 µM.
As to `Cn1nc(CNC(=O)NCC23CC4CC(CC(C4)C2)C3)cc1C(F)(F)F` [4e, 1-[(Adamantan-1-yl)methyl]-3-[(1-metyl-5-trifluoromethyl-1H-pyrazol-3-yl)methyl]urea], the IC50 in series [1] (setting [4]) amounted to 22.5 nM. The Solubility in series [2] (setting [5]) is 160 to 170 µM.
On to `O=C(NCc1ccn(CC(F)F)n1)NC12CC3CC(CC(C3)C1)C2` [3b, 1-Adamantyl-3-{[1-(2,2-difluoroethyl)-1H-pyrazol-3-yl]methyl}urea], for which, in series [1] (setting [4]), the midpoint of inhibition, the IC50, lay at 12 nM. This molecule also returned a Solubility in series [2] (setting [5]) of 300 to 310 µM.
Take `O=C(NCc1ccn(C(F)F)n1)NCC12CC3CC(CC(C3)C1)C2` [4d, 1-[(Adamantan-1-yl)methyl]-3-[(1-difluoromethyl-1H-pyrazol-3-yl)methyl]urea]: the IC50 in series [1] came out at 15 nM. The Solubility in series [2] (setting [3]) was 570 to 580 µM (≈ 193 to 196 µg/mL).
With `O=C(NCc1ccn(C(F)F)n1)NC12CC3CC(CC(C3)C1)C2` [3d, 1-Adamantyl-3-[(1-difluoromethyl-1H-pyrazol-3-yl)methyl]urea], in series [1] (setting [4]), the IC50 was 8.8 nM. Besides, the Solubility in series [2] (setting [5]) was 670 to 680 µM.
On to `Cn1nc(CNC(=O)NC23CC4CC(CC(C4)C2)C3)c(Cl)c1Cl` [3f, 1-Adamantyl-3-[(4,5-dichloro-1-methyl-1H-pyrazol-3-yl)methyl]urea], for which 0.8 nM corresponded to half-maximal inhibition in series [1] (setting [4]) (IC50). The molecule further returned a Solubility in series [2] (setting [5]) of 250 to 260 µM.
Take `O=C(NCc1ccn(CC(F)(F)F)n1)NCC12CC3CC(CC(C3)C1)C2` [4c, 1-[(Adamantan-1-yl)methyl]-3-{[1-(2,2,2-trifluoroethyl)-1H-pyrazol-3-yl]methyl}urea]: in series [1], the IC50 amounted to 7.3 nM. The Solubility in series [2] (setting [3]) lay within 740 to 750 µM (≈ 274 to 278 µg/mL).
In series [1] (setting [4]), `O=C(NCc1ccn(CC(F)(F)F)n1)NC12CC3CC(CC(C3)C1)C2` [3c, 1-Adamantyl-3-{[1-(2,2,2-trifluoroethyl)-1H-pyrazol-3-yl]methyl}urea] displayed an IC50 of 9.6 nM. Also, the Solubility in series [2] (setting [5]) fell in the range of 390 to 400 µM.
On to `Cn1nc(CNC(=O)NC23CC4CC(CC(C4)C2)C3)cc1C(F)(F)F` [3e, 1-Adamantyl-3-[(1-metyl-5-trifluoromethyl-1H-pyrazol-3-yl)methyl]urea], for which, in series [1] (setting [4]), the midpoint of inhibition, the IC50, lay at 9.9 nM. Further, the Solubility in series [2] (setting [5]) lay in the range of 160 to 170 µM.
Turning to `Cn1nc(CNC(=O)NCC23CC4CC(CC(C4)C2)C3)c(Cl)c1Cl` [4f, 1-[(Adamantan-1-yl)methyl]-3-[(4,5-dichloro-1-methyl-1H-pyrazol-3-yl)methyl]urea], the concentration for half-maximal inhibition (IC50) in series [1] was determined as 1.2 nM. The same molecule displayed a Solubility in series [2] (setting [3]) of 120 to 130 µM (≈ 44.6 to 48.3 µg/mL).
